These results are taken from paper PMC6298966, “HAI Peptide and Backbone Analogs—Validation and Enhancement of Biostability and Bioactivity of BBB Shuttles” (Scientific Reports, 2018).

Data set [1] concerns bovine brain endothelial cells (BBECs). Briefly: Internalization of Cf-labeled peptides by BBECs (CLSM, flow cytometry). The class given is cell-based. As to conditions: for Internalization with respect to the parent version (HAI): 50 μM; for Internalization with respect to the parent version (HAI) / Internalization profile among candidates: 3 h, 37 °C; for Internalization profile among candidates: Cf-labeled peptides 50 μM (R8 15 μM).

Data set [2] is described as follows: In vitro bovine BBB cell-based model assay. As to conditions: BBB Papp, 200 μM, RP-HPLC; for Papp at 2 h, 200 μM: bovine.
Description: (§2) In these models, two compartments are separated by a membrane containing a monolayer of endothelial cells which mimics either the intestinal barrier or the BBB. One compartment contains the peptide, which is incubated for 2 h. The amount of peptide in each compartment is then analyzed to determine apparent permeability (Papp, in cm/s) and transport (T, in %). The integrity of the compound in the acceptor compartment is assessed by mass spectrometry (MS).
(§3) This assay was an adapted model[10] of the method previously published by Gaillard and de Boer[52]. Briefly, TEER was measured in all transwells (TEER > 100 Ω·cm^2), before performing the assay. […] The apical compartment was filled with 200 μL of the solution containing the peptide, and 800 µL of Ringer-HEPES was poured into the basal well. Three replicates of each peptide were assayed. The plate was left for 2 h in the incubator at 37 °C. Finally, the samples were collected and analyzed or frozen until analysis. LY fluorescence was measured in a 96-well plate with a Fluoroskan Ascent Microplate Fluorometer (Thermo Fisher Scientific).
(§4) In vitro Transport of AuNPs in using a Bovine BBB Cell-Based Model Assay. To assess the
(§5) capacity of HAI to cross the BBB, this peptide was conjugated to AuNPs and then assay ed in an in
vitro BBB cell-based model.
In data set [3] the test system is in vitro bovine BBB model. The experiment in a line: In vitro bovine BBB cell-based model assay. As to conditions: for BBB T (%): 200 μM, RP-HPLC.
Description: as §2, §3, §4, §5
vitro BBB cell-based model.
Data set [4] is described as follows: Peptide stability in human serum. The class given is in vitro ADME. As to conditions: male, human serum diluted with HBSS, 24 h, RP-HPLC; for half-life: human serum. The method, then: Nevertheless, peptides formed by L-amino acids have a short in vivo half-life in serum, which can reduce their potential bioactivity. The sensitivity of this peptide to proteases was tested at a concentration of 150 μM in HBSS/human serum 90:10 (v/v) for 24 h. At several time points, an aliquot was extracted, precipitated serum proteins with MeOH and then analyzed by RP-HPLC.
Peptides were dissolved in 1 mL of HBSS buffer/human serum (from human male AB plasma; Sigma-Aldrich) 10:90 (v/v) at a final concentration of 200 µM and incubated at 37 °C for 24 h. Aliquots of 50 µL were extracted at a range of incubation times and treated with 200 µL of cold CH3OH (4 °C) to precipitate serum proteins. After 30 min, samples were centrifuged at 13,000 g and 4 °C for 30 min. Supernatants were analyzed by RP-HPLC-PDA and MALDI-TOF MS, using similar procedures as for the quantification of the in vitro cell-based BBB model.

The subject of data set [5] is rat astrocytes. The experiment in a line: Internalization of Cf-labeled peptides by rat astrocytes (CLSM, flow cytometry). The format is cell-based. As to conditions: for Internalization with respect to the parent version (HAI): 50 μM; for Internalization with respect to the parent version (HAI) / Internalization profile among candidates: 3 h, 37 °C; for Internalization profile among candidates: Cf-labeled peptides 50 μM (R8 15 μM).

Data set [6] relates to Caco-2 cells. The experiment in a line: Caco-2 intestinal barrier model assay. As to conditions: for Caco-2 transport: Table 2; for Caco-2 transport / Caco-2 T (%): 2 h at 37 °C, HBSS, 50 μM, RP-HPLC; for Detection by MALDI-TOF MS in acceptor wells: Caco-2 assay, after 2 h; for Caco-2 T (%): Table 1.
Description: (§6) In a subsequent step we evaluated the transport capacity of these peptides using two in vitro barrier models, namely in an intestine (Caco-2 assay)[41] and a BBB model[39],[40] […] In these models, two compartments are separated by a membrane containing a monolayer of endothelial cells which mimics either the intestinal barrier or the BBB. One compartment contains the peptide, which is incubated for 2 h. The amount of peptide in each compartment is then analyzed to determine apparent permeability (Papp, in cm/s) and transport (T, in %). The integrity of the compound in the acceptor compartment is assessed by mass spectrometry (MS).
(§7) The ability of peptides to overcome the intestinal barrier was tested using Caco-2 cells. […] Briefly, experiments were done with cells (passage between 60 and 80) seeded on 4.67 cm^2 filters at a density of 5.25·10^4 cell/cm^2. Peptides dissolved in HBSS were incubated for 2 h at a 50 μM concentration with cell layers at 37 °C and 5% CO2. After the experiment, the content of each compartment was directly analyzed by HPLC and then transport (in %) and Papp were determined.
The nature of data set [7]: Caco-2 intestinal barrier model assay. As to conditions: human, Caco-2.
Description: as §6, §7
In data set [8] the test system is bovine brain endothelial cells (BBECs). Briefly: MTT toxicity assay in BBECs. The class given is cell-based. As to conditions: 50 μM, 24 h. The method, then: (§1) The assay was performed in 96-well plates, adding 3,150 cells to each well in 100 μL (immortalized cell line –i.e. BBECs) or 7,000 cells in 100 μL (primary cultures –i.e. rat astrocytes), seeded 24 h before performing the experiment. Cells were incubated with each peptide at a range of concentrations (20, 50 and 500 μM) in cellular medium for 24 h at 37 °C and 5% CO2. After 22 h, MTT (3-(4,5-dimethylthiazol-2-yl)−2,5-diphenyltetrazolium bromide) was added to a final concentration of 0.5 mg/mL. The cells with peptides and MTT were incubated for further 2 h. The medium was then discarded and 200 μL of 2-propanol was added to each well to dissolve the purple formazan, product of the conversion of MTT by the mitochondrial enzyme […]. The plate was kept in an orbital shaker for 30 min (15 rpm) to ensure the complete dissolution of formazan. Finally, absorbance was measured at 570 nm and cell viability percentages were calculated dividing the absorbance value of cells treated with a given peptide by the absorbance value of untreated cells. Experiments for each peptide were carried out by triplicate. Cells incubated with 1% SDS were used as control of 0% viability (value subtracted to all samples before viability calculus per each peptide).

In data set [9] the test system is rat astrocytes. The experiment in a line: MTT toxicity assay in rat astrocytes. The format is cell-based. As to conditions: 50 μM, 24 h. The method, then:
as §1

In data set [10] the test system is in vitro bovine BBB model.
Description: as §2, §3, §4, §5
vitro BBB cell-based model.
A short description of the next data set: in vitro. As to conditions: bovine.
In data set [11] the test system is Caco-2 cells.
Description: as §6, §7
Another data set relates to in vitro human BBB model. The experiment in a line: In vitro human BBB cell-based model assay. The class given is in vitro ADME. As to conditions: 50, 250 and 1250 μM. The procedure:
The discrepancy between internalization and transport of (NMe)HAI is probably due to an increase in lipophilicity after methylation of the backbone, thereby enhancing internalization by passive diffusion but not favoring the transcytosis. To ensure that rD-HAI crosses the BBB through active transport, we proceeded to test its mechanism of transport using a human model of the BBB.
This assay was performed using the model published by Cecchelli and co-workers[53]. Endothelial cells and pericytes were defrosted in gelatin-coated Petri dishes (Corning). Pericytes and endothelial cells were cultured in DMEM pH 6.8 or in supplemented endothelial cell growth medium (Sciencells), respectively. After 48 h, pericytes (50,000 cells/well) and endothelial cells (80,000 cells/well) were seeded in gelatin-coated 12-well plates or in Matrigel-coated 12-well Transwell inserts (Corning), respectively. Medium was changed every 2–3 days and assays were performed 7–8 days after seeding. […] […] Then, 500 µL of the compound and 1,500 µL of Ringer-HEPES alone were introduced in the apical or in the basolateral compartments, respectively. The plates were set on at 37 °C for 2 h. The solutions from both compartments were then recovered and quantified by HPLC and identified by MALDI-TOF.

Read-outs that look alike come from different tables or passages of the source. Residues, ends and D or L forms follow the SMILES beside them.

Take `CC[C@H](C)[C@@H](C(=O)N(C)[C@@H](Cc1ccc(O)cc1)C(=O)N1CCC[C@H]1C(=O)N[C@@H](CCCNC(=N)N)C(=O)N(C)[C@@H](Cc1c[nH]cn1)C(N)=O)N(C)C(=O)[C@H](C)NC(=O)[C@@H](N)Cc1c[nH]cn1` [(NMe)HAI, H-HA(NMe)I(NMe)YPR(NMe)H-NH2]: the “Internalization with respect to the parent version (HAI)” value (in data set [1]; in the data set on rat astrocytes [5]) was “two-fold increase in internalization” throughout. This molecule showed an apparent permeability coefficient (Papp) at 2 h, 200 μM in data set [2] (Table 2, 2 h at 37 °C) of 11.7 ± 1.3 ×10⁻⁶ cm/s. Also, in [3] (Table 2, 2 h at 37 °C), the “BBB T (%)” value is 13.9 ± 1.6%. Moreover, the half-life in data set [4] was greater than 24 h. For the same molecule, the “Caco-2 transport” value in the data set with Caco-2 cells [6] is listed as 0.200 ± 0.003.

Take `CC[C@H](C)[C@H](NC(=O)[C@H](C)NC(=O)[C@@H](N)Cc1c[nH]cn1)C(=O)N[C@@H](Cc1ccc(O)cc1)C(=O)N1CCC[C@H]1C(=O)N[C@@H](CCCNC(=N)N)C(=O)N[C@@H](Cc1c[nH]cn1)C(N)=O` [HAI, H-HAIYPRH-NH2]: the “Internalization in presence of transferrin (Tf)” value in data set [1] (Cf-HAI 50 μM, flow cytometry) is on record as “promoted by the addition of Tf”; with rat astrocytes [5] (Cf-HAI 50 μM, flow cytometry), “promoted by the addition of Tf”. In addition, in data set [1] (range of concentrations of Cf-HAI), the “Internalization at increasing concentrations of peptide” value is reported as “saturation of internalization”. In addition, the apparent permeability (Papp) at 2 h, 200 μM in data set [2] (Table 1, 2 h at 37 °C) turned out to be 18 ± 2 ×10⁻⁶ cm/s; in [2] (Table 2, 2 h at 37 °C), 9 ± 5 ×10⁻⁶ cm/s. The “BBB T (%)” value came to 16 ± 3% in data set [3] (Table 1, 2 h at 37 °C) and 10 ± 3% in data set [3] (Table 2, 2 h at 37 °C). The half-life at 150 μM in [4] (150 μM in HBSS/human serum 90:10 (v/v)) is roughly 5 min. For the same molecule, the Papp at 2 h, 50 μM in data set [7] is 0.0002 ± 8e-05 ×10⁻⁶ cm/s. The “Detection by MALDI-TOF MS in acceptor wells” value (“Detection by MALDI-TOF MS” below) in the data set on Caco-2 cells [6] is given as “detected”. For the same molecule, the “Caco-2 T (%)” value in the data set with Caco-2 cells [6] is listed as 0.7 ± 0.3%. Further, the “Caco-2 transport” value with Caco-2 cells [6] came to 0.7 ± 0.3. The “Toxicity (MTT assay)” value (in [8]; in the data set on rat astrocytes [9]) was “not toxic” in each case.

Regarding `N=C(N)NCCC[C@H](NC(=O)[C@H](CCCNC(=N)N)NC(=O)[C@H](CCCNC(=N)N)NC(=O)[C@H](CCCNC(=N)N)NC(=O)[C@H](CCCNC(=N)N)NC(=O)[C@H](CCCNC(=N)N)NC(=O)[C@H](CCCNC(=N)N)NC(=O)[C@@H](N)CCCNC(=N)N)C(=O)O` [Peptide R8], the “Internalization profile among candidates” value in data set [1] is reported as “highest internalization profiles”. The apparent permeability coefficient (Papp) in data set [2] (Table 1, 2 h at 37 °C) amounted to 0.6 ± 0.06 ×10⁻⁶ cm/s. The “BBB T (%)” value in data set [3] (Table 1, 2 h at 37 °C) was 0.68 ± 0.07%. In addition, in the data set with rat astrocytes [5], the “Internalization profile among candidates” value was “highest internalization profiles”. In the data set on Caco-2 cells [6], the “Detection by MALDI-TOF MS” value is reported as “detected” and the “Caco-2 T (%)” value is 0%.

Turning to `CC[C@H](C)[C@H](NC(=O)[C@H](CC(=O)O)NC(=O)[C@H](CS)NC(=O)[C@@H]1CCCN1C(=O)[C@@H](NC(=O)CNC(=O)[C@@H]1CCCN1C(=O)[C@H](CCCNC(=N)N)NC(=O)[C@@H]1CCCN1C(=O)[C@H](CC(N)=O)NC(=O)[C@H](CCC(=O)O)NC(=O)[C@@H]1CCCN1C(=O)[C@H](CCSC)NC(=O)[C@H](Cc1c[nH]c2ccccc12)NC(=O)[C@@H](NC(=O)[C@@H](NC(=O)[C@@H](N)Cc1ccc(O)cc1)[C@@H](C)O)[C@@H](C)CC)[C@@H](C)O)C(=O)N[C@@H](Cc1ccccc1)C(=O)N[C@H](C(=O)N[C@@H](CC(N)=O)C(=O)N[C@@H](CO)C(=O)N[C@@H](CCCNC(=N)N)C(=O)NCC(=O)N[C@@H](CCCCN)C(=O)N[C@@H](CCCNC(=N)N)C(=O)N[C@@H](C)C(=O)N[C@@H](CO)C(=O)N[C@@H](CC(N)=O)C(=O)NCC(=O)O)[C@@H](C)O` [RVG], the “BBB T (%)” value in [10] came out at 0.29 ± 0.03%. Moreover, the Papp in “in vitro” turned out to be 0.28 ± 0.02 ×10⁻⁶ cm/s. In the data set with Caco-2 cells [11], the “Caco-2 Papp” value came out at 0 ×10⁻⁶ cm/s and the “Caco-2 T (%)” value was determined as 0%.

For `CC(C)C[C@H](NC(=O)[C@@H](N)C(C)C)C(=O)N[C@@H](CCCNC(=N)N)C(=O)N1CCC[C@H]1C(=O)N1CCC[C@H]1C(=O)N1CCC[C@H]1C(=O)N[C@H](C(=O)N[C@@H](CC(C)C)C(=O)N[C@@H](CCCNC(=N)N)C(=O)N1CCC[C@H]1C(=O)N1CCC[C@H]1C(=O)N1CCC[C@H]1C(=O)N[C@H](C(=O)N[C@@H](CC(C)C)C(=O)N[C@@H](CCCNC(=N)N)C(=O)N1CCC[C@H]1C(=O)N1CCC[C@H]1C(=O)N1CCC[C@H]1C(=O)O)C(C)C)C(C)C` [SAP, H-(VLRPPP)3-OH] (H-VLRPPPVLRPPPVLRPPP-OH), the Papp at 2 h, 200 μM in data set [2] (Table 1, 2 h at 37 °C) stood at 5.5 ± 1.5 ×10⁻⁶ cm/s. Also, the “BBB T (%)” value in [3] (Table 1, 2 h at 37 °C) amounted to 5 ± 3%. For the same molecule, the “Caco-2 T (%)” value in the data set with Caco-2 cells [6] was determined as 0%.

Take `CC[C@@H](C)[C@@H](NC(=O)[C@@H](Cc1ccc(O)cc1)NC(=O)[C@H]1CCCN1C(=O)[C@@H](CCCNC(=N)N)NC(=O)[C@H](N)Cc1c[nH]cn1)C(=O)N[C@H](C)C(=O)N[C@H](Cc1c[nH]cn1)C(N)=O` [rD-HAI, H-hrpyiah-NH2]: the “Internalization with respect to the parent version (HAI)” value (in data set [1]; with rat astrocytes [5]) was “maintained the internalization rate” each time. For the same molecule, the apparent permeability coefficient (Papp) at 2 h, 200 μM in [2] (Table 2, 2 h at 37 °C) was determined as 14 ± 2 ×10⁻⁶ cm/s. The “BBB T (%)” value in data set [3] (Table 2, 2 h at 37 °C) was determined as 17 ± 3%. For the same molecule, the “BBB transport rate relative to the parent version” value in [3] (vs HAI) is reported as “around 1.5 times”. For the same molecule, the half-life in data set [4] was greater than 24 h. In addition, the Papp at 2 h, 50 μM in data set [7] is 0.00012 ± 0.0001 ×10⁻⁶ cm/s. Besides, the “Caco-2 transport” value in the data set with Caco-2 cells [6] is on record as 0.4 ± 0.3. For the same molecule, in the data set on in vitro human BBB model, the “Transport at increasing concentrations” value is listed as “saturation of transport”.

Regarding Penetratin, the “Internalization profile among candidates” value (in [1]; with rat astrocytes [5]) was “highest internalization profiles” throughout.

On to “TAT: HIV TAT 48–57 peptide, derived from the transcriptional trans-activator protein of HIV-1; cell-penetrating peptide (GRKKRRQRRR; UniProt P04608 48-57, looked up, fragment)”, for which the “Internalization profile among candidates” value (in [1]; with rat astrocytes [5]) was “highest internalization profiles” throughout. Besides, in data set [3] (Table 1, 2 h at 37 °C), the “BBB T (%)” value is 0%. The “Detection by MALDI-TOF MS” value in data set [3] (after 2 h) is listed as “not detected”. The “Caco-2 T (%)” value in the data set on Caco-2 cells [6] is listed as 0%.
